Source: patent US20100022648A1, “ORAL USE OF AT LEAST ONE MONOUNSATURATED FATTY ACID FOR HAIR IMPROVEMENT” (L'OREAL, priority 2006, published 2010)
Marks after values point to notes of the source that are not given here.

Tested on: dermal fibroblasts
Experiment: Formation of glycation products in cultures of dermal fibroblasts (Dot Blot immunodetection, densitometric analysis)
Assay type: cell-based
Conditions: culture of dermal fibroblasts; for % GP relative to the control: GP = glycation products, Aminoguanidine 1 mg/ml, Petroselinic acid 0.885 mM, control = 100, p < 0.01; for decrease in the formation of glycation products relative to the control: same concentrations as Table 1
Procedure: Dermal fibroblasts are cultured by the usual techniques that are well known by a person skilled in the art.
The glycation products are quantified by densitometric analysis of the spots in immunodetection of the glycation products (Dot Blot method), relative to a control (culture of fibroblasts without addition of the product).
Thus, aminoguanidine reduces the amount of glycation product relative to the control by 58%.
In another case, the culture of fibroblasts is supplemented with petroselinic acid.

| SMILES | % GP relative to the control | % GP relative to the control (listed as aminoguanidine) [%] | decrease in the formation of glycation products relative to the control [%] | % GP relative to the control (listed as petroselinic acid) [%] |
| --- | --- | --- | --- | --- |
| N=C(N)NN [Aminoguanidine, aminoguanidine] | 42* % | 42 | 58 | – |
| CCCCCCCCCCC/C=C\CCCCC(=O)O [Petroselinic acid, petroselinic acid] | 73* % | – | 27 | 73 |
